According to publication PMC4286001 (Journal of Clinical Pharmacy and Therapeutics, 2013):
Where two headings read alike, the source gives them in different places.

Legend:
[1] = cited from earlier work
[2] = Safety and tolerability of single-dose ponatinib 45 mg in healthy subjects; assay type: in vivo, human
[3] = assay type: in vivo, human; settings: for V/F, geometric mean (%CV): single oral 45 mg tablet

Time at which maximum mean concentrations were reached ([3]; across high-fat, low-fat and fasted regimens, single 45-mg tablet)	V/F, geometric mean (%CV) ([3]; fasted)	V/F, geometric mean (%CV) ([3]; high-fat meal)	V/F, geometric mean (%CV) ([3]; low-fat meal)	Time post-dose at which maximum plasma concentration was observed ([3]; overall, fasting, high-fat and low-fat)	SMILES	Effect of food intake on PK [1]	Subjects with AEs at least possibly related to treatment, n (%) ([2]; 24 subjects, all regimens)	Severe AEs ([2]; all regimens)	Treatment-related increased lipase levels ([2]; all regimens)	Vital signs, ECG parameters or physical examinations ([2]; all regimens)	High triacylglycerol lipase levels ([2]; clinically significant abnormality)	Tolerability ([2]; healthy subjects, regardless of food intake regimen)	Clinically significant abnormalities (laboratory), number ([2]; in a total of five subjects)	Quantifiability of ponatinib in plasma ([3]; all three treatment regimens, lower limit 0·5 ng/mL)
–	–	–	–	–	Cc1nc(Nc2ncc(C(=O)Nc3c(C)cccc3Cl)s2)cc(N2CCN(CCO)CC2)n1 [dasatinib]	unaffected by food intake	–	–	–	–	–	–	–	–
5 to 6 h	1242 (30·0) L	1104 (28·8) L	1278 (37·6) L	~6 h	Cc1ccc(C(=O)Nc2ccc(CN3CCN(C)CC3)c(C(F)(F)F)c2)cc1C#Cc1cnc2cccnn12 [ponatinib, 3-[2-(imidazo[1,2-b]pyridazin-3-yl)ethynyl]-4-methyl-N-{4-[(4-methylpiperazin-1-yl)methyl]-3-(trifluoromethyl)phenyl}benzamide]	–	10 (41·7%) subjects	no severe AEs	three	No clinically significant abnormalities	three	generally well tolerated	five	quantifiable through the 96-h sampling interval
